Reference: patent publication US10300056B2, “CGRP receptor antagonists” (Heptares Therapeutics Limited, priority 2015, dated 2019)
≈ marks a conversion by molar mass, not a printed value. Like-named read-outs stand apart in the source and are kept apart here.

Key:
[1] = molecular target: T1, CGRP receptor ectodomain complex (Homo sapiens (Human), UniProt O60894+Q16602); assay: Receptor kinetic profiling by surface plasmon resonance (Biacore T200); conditions: SPR; for receptor dissociation (off-rate) compared with olcegepant or MK-3207: in words; for CGRP t1/2: dissociation half-life, 25° C.
T1 sequence (Q16602 23-139): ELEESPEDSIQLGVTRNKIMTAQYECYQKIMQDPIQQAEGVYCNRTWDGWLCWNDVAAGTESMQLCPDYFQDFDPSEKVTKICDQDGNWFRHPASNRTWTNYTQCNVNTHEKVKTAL
T1 sequence (O60894 27-118): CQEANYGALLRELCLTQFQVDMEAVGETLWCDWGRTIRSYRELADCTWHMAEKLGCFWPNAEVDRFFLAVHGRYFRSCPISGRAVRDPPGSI
Experimental: (§1) Kinetic analyses were run on a Biacore T200 instrument (GE Healthcare Bio-Sciences AB, Uppsala, Sweden) at 25° C. using 0.05 mM EDTA, PBS (10 mM phosphate buffer, 2.7 mM KCl, 137 mM NaCl) pH 7.4, 0.005% v/v Surfactant P20, 5% DMSO as the running buffer. […] The chip was loaded with Ni^2+ and carboxyl groups of the dextran matrix were activated by EDC/NHS. The receptor ectodomain complex (100 nM in running buffer) was then injected and immobilised via the His-tag and amino groups. Two fold dilution series of each compound (five concentrations, in the range 25-40 nM) were injected. Blank-subtracted data were fitted to a 1:1 interaction model to obtain kinetic parameters which are expressed in Table 4 as dissociation half-life (t1/2=(ln 2/off-rate (kd)/60).

[2] = Rat pharmacokinetic profiling (iv, sc, IN); conditions: male, Sprague Dawley; for clearance: iv
Experimental: Pharmacokinetic profiling.
Prior to IN dosing rats were anaesthetised with an intramuscular dose of 25-30 mg/kg ketamine cocktail (ketamine, xylazine hydrochloride and acepromazine maleate in saline) and the dose is introduced over 20-30 s via a polyethylene PE-10 tube inserted approximately 5 mm into the nasal cavity of the rat.
(§2) WinNonlin v6.2 statistics software (Pharsight Corporation, California, USA) was used to generate pharmacokinetic parameters using the non-compartmental model.

[3] = Cynomolgus monkey pharmacokinetic profiling (iv, sc); conditions: male; for clearance: plasma, iv
From the text: Pharmacokinetic profiling.
as §2

[4] = molecular target: Human CGRP receptors (consisting of CRLR and RAMP1) (Homo sapiens (Human), UniProt O60894+Q16602); assay: Radioligand binding assay (3H-telcagepant displacement); conditions: Sf21 membranes, 0.5 nM 3H-telcagepant, Cheng-Prussoff
Chain of Human CGRP receptors (consisting of CRLR and RAMP1) (Q16602 23-461): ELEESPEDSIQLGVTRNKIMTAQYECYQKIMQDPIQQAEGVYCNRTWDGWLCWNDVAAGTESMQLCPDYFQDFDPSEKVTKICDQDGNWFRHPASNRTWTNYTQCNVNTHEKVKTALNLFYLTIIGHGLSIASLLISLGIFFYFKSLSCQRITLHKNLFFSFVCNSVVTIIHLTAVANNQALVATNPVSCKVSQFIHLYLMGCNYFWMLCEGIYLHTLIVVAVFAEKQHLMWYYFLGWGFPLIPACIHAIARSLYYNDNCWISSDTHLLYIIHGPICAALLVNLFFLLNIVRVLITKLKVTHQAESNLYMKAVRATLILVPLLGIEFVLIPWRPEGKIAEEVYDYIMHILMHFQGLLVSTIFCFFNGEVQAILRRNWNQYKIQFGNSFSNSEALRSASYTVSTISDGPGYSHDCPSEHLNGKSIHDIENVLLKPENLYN
Chain of Human CGRP receptors (consisting of CRLR and RAMP1) (O60894 27-148): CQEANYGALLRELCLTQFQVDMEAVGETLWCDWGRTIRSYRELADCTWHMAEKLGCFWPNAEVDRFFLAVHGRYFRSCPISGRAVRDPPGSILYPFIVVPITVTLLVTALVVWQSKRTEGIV
Experimental: Human Calcitonin Receptor Like Receptor (CRLR) and human RAMP1 were cloned into Invitrogen's (ThermoFisher Scientific, UK) pFastBac dual expression vector. Transposition of CRLR/RAMP1 DNA was performed using Invitrogen's Bac-to-Bac Baculovirus Expression Systems. P0 baculovirus was generated by transfecting SF9 cells with bacmid DNA using Cellfectin® II transfection reagent (ThermoFisher Scientific, UK, catalog number 10362-100). Following P0 generation P1 virus was then generated ready for large scale infection and membrane preparation. Sf21 cells were grown in expression medium ESF921 (Expression Systems, USA, catalog number 96-001-01) supplemented with 10% heat-inactivated FBS and 1% Pen/Strep and were infected at a cell density of 2.5×10^6 cells/mL and an MOI of 2. Expression was carried out over 48 h in a shaking incubator set at 27° C. The cell culture was centrifuged at 2,500 rcf for 10 min at 4° C. The pellets were resuspended in cold PBS supplemented with Roche's Complete EDTA-free protease inhibitor cocktail tablets (Roche Applied Sciences, catalog number 05056489001), 1 mM PMSF and 1 mM EDTA. The resuspended cell paste was then centrifuged at 3,273 rcf for 12 min at 4° C. The supernatant was discarded and the pellet frozen at −80° C. The cell pellet from a 4 L culture was resuspended in buffer containing 50 mM Hepes pH 7.5, 150 mM NaCl, 8 Roche EDTA-free protease inhibitor cocktail tablets and 1 mM PMSF. The suspension was left stirring at rt for 1 h and then homogenised for 90 s at 9,500 rpm using a VDI 25 (VWR, USA) homogeniser. The cells were then lysed using a Microfluidizer processor M-110L Pneumatic (Microfluidics, USA). After lysis, the mixture was homogenised for 90 s at 9,500 rpm and then centrifuged at 335 rcf for 10 min. The supernatant was then further ultra-centrifuged at 42,000 rpm for 90 min. After ultra-centrifugation, the supernatant was discarded and the pellet was resuspended in 50 mL (25 mL for each 2 L culture) of buffer containing 50 mM Hepes pH 7.5, 150 mM NaCl, 3 Roche EDTA-free protease inhibitor cocktail tablets and 1 mM PMSF. The suspension was then homogenised for 90 s at 9,500 rpm. The resulting membranes were then stored at −80° C.
Human CGRP receptors expressed (consisting of CRLR and RAMP1) in insect Sf21 cell membrane homogenates were re-suspended in the binding buffer (10 mM HEPES, pH 7.4, 5 mM MgCl2, 0.2% BSA) to a final assay concentration of 0.6 μg protein per well. Saturation isotherms were determined by the addition of various concentrations of ^3H-telcagepant (Ho et al, The Lancet, 2008, 372, 2115) (in a total reaction volume of 250 μL) for 60 min at rt. At the end of the incubation, membranes were filtered onto a unifilter, a 96-well white microplate with bonded GF/B filter pre-incubated with 0.5% PEI, with a Tomtec cell harvester and washed 5 times with distilled water. Non-specific binding (NSB) was measured in the presence of 10 nM MK-3207 hydrochloride (CAS No. 957116-20-0). Radioactivity on the filter was counted (1 min) on a microbeta counter after addition of 50 μL of scintillation fluid. For inhibition experiments, membranes were incubated with 0.5 nM ^3H-telcagepant and 10 concentrations of the inhibitory compound (0.001-10 μM). IC50 values were derived from the inhibition curve and the affinity constant (Ki) values were calculated using the Cheng-Prussoff equation (Cheng et al, Biochem. Pharmacol. 1973, 22, 3099-3108).

[5] = Thermodynamic solubility profiling; format: physicochemical; conditions: aqueous buffer, thermodynamic from solid
Experimental: A 50 mM DMSO stock solution of test compound was prepared, and from this, a working solution of 1 mM was prepared by dilution with DMSO. The UV absorbance of working solution was scanned from 220 nm to 1000 nm to identify the wavelength maxima of test compound. The 1 mM working solution was then serially diluted in DMSO to different concentrations to determine linearity/calibration curve. […] The resulting solution was then kept on a RotoSpin shaker at 50 rpm for 24 h at rt before the solution was filtered using 0.45 micron PVDF injector filters in order to remove the insoluble fraction of the compound. Subsequently, 150 uL of the filtrate is taken for quantification using a UV spectrophotometer, acquiring the optical density of standard solutions and test compound at the same wavelength maxima. From the optical density of test compound the thermodynamic solubility is calculated using the linearity/calibration curve and expressed as micromolar (μM). Solubility profiles of certain compounds of the invention are detailed in Table 7.

CGRP receptor [6] = molecular target: T2, CGRP receptor (Homo sapiens (Human), UniProt O60894+Q16602); assay: cAMP functional assay (HTRF) in SK-N-MC cells; format: cell-based; conditions: read-out: pkb average (converted)
T2 sequence (Q16602 23-461): as the sequence (Q16602 23-461) above
T2 sequence (O60894 27-148): as the sequence (O60894 27-148) above
Experimental: cAMP production following receptor activation was determined using the Homogeneous Time-Resolved Fluorescence (HTRF) cAMP dynamic-2 assay (Cisbio, France). The human neuroblastoma cell line SK-N-MC endogenously expressing the human CGRP receptor was seeded at a density of 12,500 cells/well in solid walled 96 well half area plates (Costar, Catalog Number 3688, Corning Life Sciences, Germany). After 16 h incubation at 37° C. media was removed and cells were incubated at 37° C. for 30 min in serum free media containing 500 μM IBMX (Tocris, Abingdon, UK, Catalog Number 2845) and increasing concentrations of test antagonist. Following this cells were challenged with an EC80 concentration of human CGRP (0.3 nM) for a further 30 min at 37° C. and then cAMP production was determined as manufacturer's instructions before plates were read on a PheraStar fluorescence plate reader (BMG LabTech, Germany). IC50 values were derived from the inhibition curve. The pIC50 values (where pIC50=−log10 IC50) were converted to a functional pKb value using a modified Cheng-Prussoff equation where Kd=agonist EC50 and L hot=agonist challenge concentration. The pKb values of certain compounds of the invention are detailed in Table 3.

[7] = molecular target: T1, CGRP receptor ectodomain complex
Experimental: as §1

CGRP receptor [8] = molecular target: T2, CGRP receptor; conditions: in words, literature; cited from earlier work
[9] = at 24 h after intravenous infusion of a 2.5 mg dose; cited from earlier work
[10] = PBS buffer pH 7.4, 24 h at rt, read-out: Thermodynamic solubility pH 7.4
[11] = Sodium Phosphate Buffer pH 6.0, 24 h at rt, read-out: Thermodynamic solubility pH 6

Row | Structure (SMILES) | receptor dissociation (off-rate) compared with olcegepant or MK-3207 [1] | CGRP t1/2 [1] [min] | bioavailability ([2]; in vivo, sc, 1 mg/kg) [%] | bioavailability ([2]; plasma, inhaled or intranasal) [%] | clearance ([2]; plasma) [mL/min/kg] | bioavailability ([3]; in vivo, sc, 0.5 mg/kg) [%] | clearance [3] [mL/min/kg] | pKi average [4] | solubility thermodynamic at 24 h [5, 10] [µM] | solubility thermodynamic at 24 h [5, 11] [µM] | Kb (CGRP receptor [6]) [pM] | bioavailability ([2]; plasma, sc, 1 mg/kg) [%] | CGRP t1/2 [7] [min] | kinetics at the CGRP receptor (CGRP receptor [8]) | headache-free rate [9] [%]
1 | Cc1cc(C[C@@H](NC(=O)N2CCC3(CC2)OC(=O)Nc2ncccc23)C(=O)N[C@@H](CC2CCNCC2)C(=O)N2CCN(c3ccncc3)CC2)cc2cn[nH]c12 [Example 11, N-[(2R)-3-(7-methyl-1H-indazol-5-yl)-1-oxo-1-({(2S)-1-oxo-3-(piperidin-4-yl)-1-[4-(pyridin-4-yl)piperazin-1-yl]propan-2-yl}amino)propan-2-yl]-2′-oxo-1′,2′-dihydro-1H-spiro[piperidine-4,4′-pyrido[2,3-d][1,3]oxazine]-1-carboxamide] | slow receptor dissociation | 65 | 100 | 40 | 17 | 100 | 2 | 10.5 | 1430 (≈ 1090 µg/mL) | 1260 (≈ 965 µg/mL) | 50.1 | – | – | – | –
2 | O=C1Nc2ncccc2C2(CCN(C(=O)N[C@H](Cc3cc(Br)c(O)c(Br)c3)C(=O)N[C@@H](CC3CCNCC3)C(=O)N3CCN(c4ccncc4)CC3)CC2)O1 [Example 14, 3,5-dibromo-Nα-[(2′-oxo-1′,2′-dihydro-1H-spiro[piperidine-4,4′-pyrido[2,3-d][1,3]oxazin]-1-yl)carbonyl]-N-{(2S)-1-oxo-3-(piperidin-4-yl)-1-[4-(pyridin-4-yl)piperazin-1-yl]propan-2-yl}-D-tyrosinamide] | slow receptor dissociation | – | – | 19 | 22 | – | 3 | 10.1 | 862 (≈ 762 µg/mL) | 1110 (≈ 982 µg/mL) | 15.8 | 96 | 38 | – | –
3 | O=C(CN1C(=O)C2(CCCC2)NC[C@H]1c1cc(F)cc(F)c1)Nc1ccc2c(c1)C[C@@]1(C2)C(=O)Nc2ncccc21 [MK-3207, reference compound] | – | 27 | – | – | – | – | – | – | – | – | – | – | – | relatively slow dissociation | –
4 | NCCCC[C@H](NC(=O)[C@@H](Cc1cc(Br)c(O)c(Br)c1)NC(=O)N1CCC(N2Cc3ccccc3NC2=O)CC1)C(=O)N1CCN(c2ccncc2)CC1 [olcegepant] | – | 30 | – | – | – | – | – | – | – | – | – | – | – | slow kinetics | 47
